In ChEMBL document CHEMBL5620341, “CSF1R inhibitors are emerging immunotherapeutic drugs for cancer treatment” (Eur J Med Chem, 2023):
In brackets after ≈: the same amount, converted by molar mass. Each block holds one compound with its values, some of them ahead of it.

Legend:
[1] = target: Platelet-derived growth factor receptor beta (Homo sapiens, UniProt P09619); experiment: Inhibition of PDGFRbeta (unknown origin)
[2] = target: T1, Vascular endothelial growth factor receptor 2 (Homo sapiens, UniProt P35968); experiment: Inhibition of human VEGFR2 in presence of ATP by mobility shift assay
T1 sequence (P35968 whole entry): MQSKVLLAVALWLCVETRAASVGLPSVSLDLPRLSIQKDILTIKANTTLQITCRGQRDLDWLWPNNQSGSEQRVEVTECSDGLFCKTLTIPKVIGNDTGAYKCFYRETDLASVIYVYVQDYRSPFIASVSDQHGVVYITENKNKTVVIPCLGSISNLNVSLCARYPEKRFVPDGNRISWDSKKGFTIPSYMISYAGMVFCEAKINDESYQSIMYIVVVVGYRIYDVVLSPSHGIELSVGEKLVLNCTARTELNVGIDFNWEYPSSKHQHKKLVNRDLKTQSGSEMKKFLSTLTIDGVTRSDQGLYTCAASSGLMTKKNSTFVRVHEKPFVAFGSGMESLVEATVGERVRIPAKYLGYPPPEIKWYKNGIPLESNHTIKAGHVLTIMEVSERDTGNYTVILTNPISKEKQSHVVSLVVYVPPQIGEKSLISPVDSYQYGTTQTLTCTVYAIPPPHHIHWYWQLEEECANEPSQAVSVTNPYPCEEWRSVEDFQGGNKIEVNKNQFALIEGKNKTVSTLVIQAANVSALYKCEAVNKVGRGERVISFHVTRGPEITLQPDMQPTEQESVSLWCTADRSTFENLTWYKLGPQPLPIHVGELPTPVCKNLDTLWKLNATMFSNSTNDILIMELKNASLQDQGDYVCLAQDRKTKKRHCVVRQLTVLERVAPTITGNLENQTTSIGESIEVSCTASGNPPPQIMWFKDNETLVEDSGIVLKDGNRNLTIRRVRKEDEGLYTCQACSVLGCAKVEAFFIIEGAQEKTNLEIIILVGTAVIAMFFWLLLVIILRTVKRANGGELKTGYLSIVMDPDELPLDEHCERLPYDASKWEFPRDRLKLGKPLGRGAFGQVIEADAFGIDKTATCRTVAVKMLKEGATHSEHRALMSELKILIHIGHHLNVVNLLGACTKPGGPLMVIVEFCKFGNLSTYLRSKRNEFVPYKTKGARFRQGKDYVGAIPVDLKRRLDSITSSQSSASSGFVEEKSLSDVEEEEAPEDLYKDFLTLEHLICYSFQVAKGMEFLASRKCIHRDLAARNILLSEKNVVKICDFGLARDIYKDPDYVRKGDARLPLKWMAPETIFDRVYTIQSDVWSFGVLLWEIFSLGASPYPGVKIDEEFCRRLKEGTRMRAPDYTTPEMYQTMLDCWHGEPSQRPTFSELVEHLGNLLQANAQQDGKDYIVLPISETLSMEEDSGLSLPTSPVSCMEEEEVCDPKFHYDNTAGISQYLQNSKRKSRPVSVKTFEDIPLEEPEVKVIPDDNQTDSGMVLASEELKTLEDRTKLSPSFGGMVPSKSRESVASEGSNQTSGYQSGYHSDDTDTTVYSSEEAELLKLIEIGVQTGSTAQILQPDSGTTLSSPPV

NFS-60 [3] = experiment: Growth inhibition of mouse NFS-60 cells; assay type: functional
[4] = Metabolic stability in mouse liver microsomes assessed as half life; assay type: ADME, Microsome
[5] = Solubility of compound in PBS at pH 7.4; assay type: physicochemical
[6] = Unbound fraction in mouse plasma; assay type: ADME, cell-free
[7] = target: T2, Macrophage colony-stimulating factor 1 receptor (Homo sapiens, UniProt P07333); experiment: Binding affinity to CSF1R (unknown origin) assessed as dissociation constant
T2 sequence (P07333 whole entry): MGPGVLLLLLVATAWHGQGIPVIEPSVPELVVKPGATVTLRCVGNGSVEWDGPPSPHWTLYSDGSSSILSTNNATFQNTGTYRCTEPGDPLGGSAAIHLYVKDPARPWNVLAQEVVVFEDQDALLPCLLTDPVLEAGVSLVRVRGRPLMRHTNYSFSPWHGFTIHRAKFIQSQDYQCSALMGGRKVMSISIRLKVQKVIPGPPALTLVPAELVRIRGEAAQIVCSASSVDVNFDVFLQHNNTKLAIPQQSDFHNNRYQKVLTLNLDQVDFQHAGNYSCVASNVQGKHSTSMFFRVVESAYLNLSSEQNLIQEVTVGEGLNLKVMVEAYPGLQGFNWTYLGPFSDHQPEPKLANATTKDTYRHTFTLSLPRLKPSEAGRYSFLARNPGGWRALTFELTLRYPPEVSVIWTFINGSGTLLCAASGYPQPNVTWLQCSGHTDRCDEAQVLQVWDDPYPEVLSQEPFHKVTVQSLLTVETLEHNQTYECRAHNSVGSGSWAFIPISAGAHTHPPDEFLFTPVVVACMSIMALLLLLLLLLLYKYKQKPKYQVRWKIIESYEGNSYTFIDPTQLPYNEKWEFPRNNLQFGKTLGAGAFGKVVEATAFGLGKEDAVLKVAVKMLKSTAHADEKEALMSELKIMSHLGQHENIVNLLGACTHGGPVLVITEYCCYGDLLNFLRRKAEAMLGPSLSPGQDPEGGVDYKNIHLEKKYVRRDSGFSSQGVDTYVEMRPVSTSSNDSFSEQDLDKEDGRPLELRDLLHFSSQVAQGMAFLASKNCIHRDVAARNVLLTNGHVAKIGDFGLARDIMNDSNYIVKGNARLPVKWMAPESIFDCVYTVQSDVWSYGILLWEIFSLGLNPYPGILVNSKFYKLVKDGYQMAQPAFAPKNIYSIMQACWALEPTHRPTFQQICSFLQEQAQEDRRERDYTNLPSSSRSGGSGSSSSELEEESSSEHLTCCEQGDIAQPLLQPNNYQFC

[8] = target: Receptor-type tyrosine-protein kinase FLT3 (Homo sapiens, UniProt P36888); experiment: Binding affinity to human FLT3 assessed as dissociation constant
[9] = Oral bioavailability in CD-1 mouse at 3 mg/kg; assay type: ADME, organism-based; conditions: in vivo
[10] = Oral bioavailability in Sprague-Dawley rat at 10 mg/kg by LC-MS/MS analysis; assay type: ADME, organism-based; conditions: in vivo
[11] = Half life in Sprague-Dawley rat at 10 mg/kg, po or 1 mg/kg, iv by LC-MS/MS analysis; assay type: ADME, organism-based; conditions: in vivo
[12] = Inhibition of FGFR (unknown origin); design: species or system Homo sapiens
EMT6 = experiment: Antitumor activity against mouse EMT6 cells allografted in BALB/c mouse assessed as reduction in tumor growth inhibition administered via oral gavage relative to control; assay type: functional
[13] = target: T2, Macrophage colony-stimulating factor 1 receptor; experiment: Inhibition of CSF1R (unknown origin) preincubated for 60 mins measured after 1 hr by ADP-Glo assay
[14] = Inhibition of human CSF1R-autoinhibited by discoverX kinome scan assay
[15] = target: T3, Macrophage colony-stimulating factor 1 receptor (Mus musculus, UniProt P09581); experiment: Inhibition of CSF1R in mouse BMDM cells; assay type: cell-based
T3 sequence (P09581 whole entry): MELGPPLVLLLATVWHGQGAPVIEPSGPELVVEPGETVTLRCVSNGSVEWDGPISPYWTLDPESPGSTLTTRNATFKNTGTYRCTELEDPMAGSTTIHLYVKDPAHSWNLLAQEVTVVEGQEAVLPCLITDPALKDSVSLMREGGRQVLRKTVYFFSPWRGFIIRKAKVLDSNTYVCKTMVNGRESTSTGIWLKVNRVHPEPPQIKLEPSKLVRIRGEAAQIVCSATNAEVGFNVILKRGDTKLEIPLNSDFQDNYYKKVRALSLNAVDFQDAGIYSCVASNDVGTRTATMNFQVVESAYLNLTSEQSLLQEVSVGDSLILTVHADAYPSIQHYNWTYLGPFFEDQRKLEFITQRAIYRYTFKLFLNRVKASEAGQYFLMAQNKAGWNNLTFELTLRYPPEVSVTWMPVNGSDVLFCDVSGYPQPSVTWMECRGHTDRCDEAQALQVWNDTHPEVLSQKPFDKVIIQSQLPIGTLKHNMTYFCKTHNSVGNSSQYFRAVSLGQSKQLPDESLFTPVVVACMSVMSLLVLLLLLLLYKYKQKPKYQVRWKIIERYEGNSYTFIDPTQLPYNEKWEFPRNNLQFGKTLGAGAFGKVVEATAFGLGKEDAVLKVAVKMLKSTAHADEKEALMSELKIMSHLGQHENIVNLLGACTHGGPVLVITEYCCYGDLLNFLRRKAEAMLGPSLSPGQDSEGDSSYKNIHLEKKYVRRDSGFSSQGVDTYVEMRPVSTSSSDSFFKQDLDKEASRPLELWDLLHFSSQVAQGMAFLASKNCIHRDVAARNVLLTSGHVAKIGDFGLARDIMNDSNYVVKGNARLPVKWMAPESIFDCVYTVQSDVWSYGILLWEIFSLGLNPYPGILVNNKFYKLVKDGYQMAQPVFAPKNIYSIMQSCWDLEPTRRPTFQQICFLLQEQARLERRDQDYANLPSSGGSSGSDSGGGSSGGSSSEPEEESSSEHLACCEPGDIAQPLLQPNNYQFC

ID8 = experiment: Cytotoxicity against mouse ID8 cells; assay type: functional
[16] = target: Receptor-type tyrosine-protein kinase FLT3 (Homo sapiens, UniProt P36888, ITD); experiment: Inhibition of FLT3-ITD mutant phosphorylation in human HEK-293T cells incubated for 2 hrs; assay type: cell-based
[17] = target: Mast/stem cell growth factor receptor Kit (Homo sapiens, UniProt P10721); experiment: Inhibition of c-KIT (unknown origin) using TK as substrate incubated for 50 mins in presence of ATP by HTRF method
Chain of Mast/stem cell growth factor receptor Kit (P10721 whole entry): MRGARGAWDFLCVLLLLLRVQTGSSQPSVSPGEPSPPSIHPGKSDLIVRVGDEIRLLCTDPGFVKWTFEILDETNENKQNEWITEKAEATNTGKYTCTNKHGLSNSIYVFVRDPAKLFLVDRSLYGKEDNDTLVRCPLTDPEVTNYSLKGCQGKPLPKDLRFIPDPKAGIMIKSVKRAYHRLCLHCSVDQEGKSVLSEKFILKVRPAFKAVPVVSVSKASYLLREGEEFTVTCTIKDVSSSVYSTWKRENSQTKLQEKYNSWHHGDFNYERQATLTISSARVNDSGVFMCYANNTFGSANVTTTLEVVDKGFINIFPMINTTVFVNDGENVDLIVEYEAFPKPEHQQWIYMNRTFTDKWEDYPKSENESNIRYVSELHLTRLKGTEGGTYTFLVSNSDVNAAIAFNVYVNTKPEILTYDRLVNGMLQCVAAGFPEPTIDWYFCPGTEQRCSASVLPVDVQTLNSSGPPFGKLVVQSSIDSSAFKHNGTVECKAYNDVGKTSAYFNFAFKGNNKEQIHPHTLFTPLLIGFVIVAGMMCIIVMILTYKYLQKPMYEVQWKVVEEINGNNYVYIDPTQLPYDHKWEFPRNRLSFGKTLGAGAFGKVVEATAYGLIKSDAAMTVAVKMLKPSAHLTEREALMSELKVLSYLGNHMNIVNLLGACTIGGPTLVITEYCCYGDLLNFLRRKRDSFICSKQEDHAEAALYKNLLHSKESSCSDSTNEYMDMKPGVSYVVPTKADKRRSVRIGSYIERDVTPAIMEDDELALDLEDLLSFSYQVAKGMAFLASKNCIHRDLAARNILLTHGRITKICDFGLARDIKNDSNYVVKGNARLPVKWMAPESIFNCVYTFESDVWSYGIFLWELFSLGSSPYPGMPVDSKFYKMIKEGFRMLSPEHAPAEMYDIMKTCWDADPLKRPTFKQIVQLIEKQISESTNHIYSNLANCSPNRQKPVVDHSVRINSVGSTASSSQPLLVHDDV

[18] = Cytotoxicity against mouse RAW264.7 cells assessed as reduction in cell viability incubated for 48 hrs by MTT assay; assay type: toxicity, cell-based
NFS-60 [19] = experiment: Cytotoxicity against mouse NFS-60 cells assessed as cell growth inhibition incubated for 72 hrs by Cell titer-glo assay; conditions: NFS-60, 72 h
NFS-60 [20] = experiment: Growth inhibition of mouse NFS-60 cells incubated for 72 hrs by Cell titer-glo assay; assay type: functional
[21] = target: Tyrosine-protein kinase Lck (Homo sapiens, UniProt P06239); experiment: Inhibition of LCK (unknown origin)
Chain of Tyrosine-protein kinase Lck (P06239 whole entry): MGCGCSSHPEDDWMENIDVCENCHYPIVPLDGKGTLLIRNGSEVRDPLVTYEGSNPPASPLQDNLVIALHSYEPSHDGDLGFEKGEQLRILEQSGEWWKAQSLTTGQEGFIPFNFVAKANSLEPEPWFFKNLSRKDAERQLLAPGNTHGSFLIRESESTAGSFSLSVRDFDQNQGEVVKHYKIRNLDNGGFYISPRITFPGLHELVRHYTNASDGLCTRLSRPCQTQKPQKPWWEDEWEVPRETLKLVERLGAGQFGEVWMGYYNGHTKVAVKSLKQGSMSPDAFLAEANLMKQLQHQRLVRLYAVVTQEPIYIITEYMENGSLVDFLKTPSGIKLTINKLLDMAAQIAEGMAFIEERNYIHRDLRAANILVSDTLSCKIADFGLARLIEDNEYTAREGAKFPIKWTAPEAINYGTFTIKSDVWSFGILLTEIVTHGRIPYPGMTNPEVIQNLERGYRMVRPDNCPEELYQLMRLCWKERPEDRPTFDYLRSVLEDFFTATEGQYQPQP

[22] = target: T1, Vascular endothelial growth factor receptor 2; experiment: Inhibition of KDR (unknown origin) using peptide as substrate incubated for 90 mins in presence of ATP by HTRF method
[23] = target: RAF proto-oncogene serine/threonine-protein kinase (Homo sapiens, UniProt P04049); experiment: Inhibition of c-RAF (unknown origin)
[24] = target: T3, Macrophage colony-stimulating factor 1 receptor; experiment: Inhibition of CSF1R autophosphorylation in mouse RAW264.7 cells measured after 4 hrs by Western blot analysis; assay type: cell-based
CT26 = experiment: Antiproliferative activity against mouse CT26 cells assessed as inhibition of cell growth measured after 6 days by MTT assay; assay type: functional, cell-based; conditions: CT26, 144 h
[25] = target: T4, Tyrosine-protein kinase Mer (Homo sapiens, UniProt Q12866); experiment: Inhibition of human MERTK by discoverX kinome scan assay
T4 sequence (Q12866 whole entry): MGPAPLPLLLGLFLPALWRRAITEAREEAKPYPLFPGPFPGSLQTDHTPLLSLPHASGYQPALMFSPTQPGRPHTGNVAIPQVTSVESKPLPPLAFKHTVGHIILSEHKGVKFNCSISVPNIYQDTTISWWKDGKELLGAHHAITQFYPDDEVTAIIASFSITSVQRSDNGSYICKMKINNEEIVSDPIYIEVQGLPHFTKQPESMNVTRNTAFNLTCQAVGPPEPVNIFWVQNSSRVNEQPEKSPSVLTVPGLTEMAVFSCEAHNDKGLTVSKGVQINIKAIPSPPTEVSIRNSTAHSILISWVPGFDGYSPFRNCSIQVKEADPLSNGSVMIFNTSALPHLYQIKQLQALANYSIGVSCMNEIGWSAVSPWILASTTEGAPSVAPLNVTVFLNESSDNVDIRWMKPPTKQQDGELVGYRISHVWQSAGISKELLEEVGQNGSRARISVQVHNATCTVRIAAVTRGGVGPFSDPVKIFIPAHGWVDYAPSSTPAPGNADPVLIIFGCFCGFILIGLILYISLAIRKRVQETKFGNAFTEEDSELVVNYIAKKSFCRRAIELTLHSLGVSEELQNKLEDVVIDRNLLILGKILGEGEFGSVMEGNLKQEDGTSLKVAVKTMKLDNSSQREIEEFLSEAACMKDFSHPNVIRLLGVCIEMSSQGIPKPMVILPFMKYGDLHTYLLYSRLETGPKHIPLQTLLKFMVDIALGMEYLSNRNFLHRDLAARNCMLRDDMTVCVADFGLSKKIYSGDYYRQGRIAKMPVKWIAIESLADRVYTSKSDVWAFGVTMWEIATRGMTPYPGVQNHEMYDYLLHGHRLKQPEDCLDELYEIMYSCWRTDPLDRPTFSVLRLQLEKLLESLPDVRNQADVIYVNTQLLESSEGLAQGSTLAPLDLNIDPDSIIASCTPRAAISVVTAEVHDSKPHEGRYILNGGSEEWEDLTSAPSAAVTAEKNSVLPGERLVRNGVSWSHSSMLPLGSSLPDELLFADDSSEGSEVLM

[26] = target: T1, Vascular endothelial growth factor receptor 2; experiment: Inhibition of VEGFR2 (unknown origin)
[27] = target: T3, Macrophage colony-stimulating factor 1 receptor; experiment: Inhibition of CSF1R in mouse RAW264.7 cells assessed as reduction in AKT phosphorylation measured after 4 hrs by Western blot analysis; assay type: cell-based
HUVEC [28] = experiment: Antiproliferative activity against VEGF stimulated HUVEC cells assessed as reduction in cell viability incubated for 72 hrs by MTT assay; conditions: Homo sapiens
[29] = target: Vascular endothelial growth factor receptor 1 (Homo sapiens, UniProt P17948); experiment: Inhibition of VEGFR1 (unknown origin)
HUVEC [30] = experiment: Antiproliferative activity against FGF stimulated HUVEC cells assessed as reduction in cell viability incubated for 72 hrs by MTT assay; conditions: Homo sapiens
MC-38 = experiment: Antitumor activity against mouse MC38 cells allografted in C57BL/6 mouse assessed as reduction in tumor volume at 5 to 10 mg/kg administered via oral gavage for 21 days relative to control; assay type: functional; design: scale not given: the % may be the effect or the level left; conditions: dose 5-10 mg/kg, time 21 day

Chain of Platelet-derived growth factor receptor beta (P09619 whole entry): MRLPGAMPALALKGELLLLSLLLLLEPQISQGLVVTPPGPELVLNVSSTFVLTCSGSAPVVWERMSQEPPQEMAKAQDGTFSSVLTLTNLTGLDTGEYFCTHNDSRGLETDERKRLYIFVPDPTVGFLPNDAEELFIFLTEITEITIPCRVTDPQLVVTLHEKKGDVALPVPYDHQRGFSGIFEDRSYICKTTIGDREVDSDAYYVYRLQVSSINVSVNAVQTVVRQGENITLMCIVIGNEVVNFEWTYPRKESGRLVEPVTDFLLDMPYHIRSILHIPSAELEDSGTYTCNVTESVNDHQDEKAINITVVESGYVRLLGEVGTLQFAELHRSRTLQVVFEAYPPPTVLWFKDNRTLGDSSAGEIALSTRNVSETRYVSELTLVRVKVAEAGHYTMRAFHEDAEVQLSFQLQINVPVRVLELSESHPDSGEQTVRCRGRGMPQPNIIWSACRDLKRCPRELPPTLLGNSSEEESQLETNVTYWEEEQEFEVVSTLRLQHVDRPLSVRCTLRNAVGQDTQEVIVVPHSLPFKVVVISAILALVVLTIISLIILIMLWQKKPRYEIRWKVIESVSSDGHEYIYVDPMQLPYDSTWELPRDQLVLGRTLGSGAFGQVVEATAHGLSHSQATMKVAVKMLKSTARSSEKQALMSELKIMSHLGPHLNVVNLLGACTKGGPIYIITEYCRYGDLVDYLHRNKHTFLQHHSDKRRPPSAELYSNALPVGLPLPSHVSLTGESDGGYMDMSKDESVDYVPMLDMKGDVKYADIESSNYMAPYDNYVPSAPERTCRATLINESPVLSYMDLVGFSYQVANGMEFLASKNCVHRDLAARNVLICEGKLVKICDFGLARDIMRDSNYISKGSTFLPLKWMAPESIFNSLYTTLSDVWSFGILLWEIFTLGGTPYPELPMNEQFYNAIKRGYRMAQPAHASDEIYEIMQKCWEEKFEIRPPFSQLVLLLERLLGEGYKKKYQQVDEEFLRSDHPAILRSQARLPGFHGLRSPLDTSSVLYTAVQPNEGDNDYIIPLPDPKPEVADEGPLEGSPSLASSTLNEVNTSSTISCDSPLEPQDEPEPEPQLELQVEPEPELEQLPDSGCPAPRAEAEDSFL

IC50 [1]: < 10 nM
IC50 [2]: < 10 nM
Structure (SMILES): CNC(=O)c1cccc2cc(Oc3ccnc(NC(=O)c4ccc(N5C[C@@H](C)N[C@@H](C)C5)cc4)c3)ccc12

Structure (SMILES): Cc1cccc(Cn2nc(C)c3c(NC(=O)c4csc5c(N)ncnc45)cccc32)n1
GI50 (NFS-60 [3]): 80 nM

half-life [4]: > 2 h
Structure (SMILES): COc1ccc(N(C(=O)Nc2c(C)cccc2C)c2cc(Nc3ccc(N4CCN(C)CC4)cc3)ncn2)c(OC)c1

solubility [5]: 428 µM (≈ 257 µg/mL)
fraction unbound [6]: 0.06
Structure (SMILES): COc1ccc(N2C(=O)N(c3c(C)cccc3Cl)Cc3cnc(Nc4ccc(C5CCN(C)CC5)cc4OC)nc32)nc1

Kd [7]: < 1 nM
Kd [8]: < 1 nM
Structure (SMILES): CN1CCN(c2ccc(C(=O)Nc3n[nH]c4cc(OCCOCc5ccc(C(F)(F)F)cc5)ccc34)cc2)CC1

bioavailability [9]: 100%
Structure (SMILES): Cn1cc(-c2cc(Oc3ccc(NC(=O)N4CCC5(CCC5)C4=O)nc3)ccn2)cn1

bioavailability [10]: 106%
half-life [11]: 2.53 h
Structure (SMILES): CNc1ccc(-c2cnc(Nc3cnc(C4CC4)nc3)cc2C)c2c1C(=O)NC2

IC50 [12]: 17.3 nM
Structure (SMILES): COc1cc(OC)c(Cl)c(-c2ccc3c(NC(=O)c4ccc(N5CCNC(C)(C)C5)cc4)n[nH]c3n2)c1Cl

Kd [7]: < 100 nM
Structure (SMILES): CCn1cc(OCC(F)(F)F)c(C(=O)Nc2ccc(Oc3ccnc4cc(OC)c(OC)cc34)cn2)n1
TGI (EMT6): >50%

IC50 [13]: 23.4 nM
IC50 [14]: 23.4 nM
Structure (SMILES): Cn1cc(-c2cc(Cc3ccc(NC(=O)NC(=O)C(C)(C)C)nc3)ccn2)cn1

bioavailability [9]: 100%
Structure (SMILES): Cn1cc(-c2cc(Oc3ccc(NC(=O)N4CCC5(CCC(F)(F)CC5)C4=O)nc3)ccn2)cn1

IC50 [15]: 93 nM
Structure (SMILES): Cc1cc(NC(=O)c2cccc3cc(-c4cccc5[nH]nc(N)c45)ccc23)ccc1F

Structure (SMILES): Cc1cccc(Cn2nc(C3CC3)c3c(NC(=O)c4cnc5cc(OCCN6CCN(C)CC6)ccn45)cccc32)n1 [ARRY-382]
ED50 (ID8): 3 mg/kg

IC50 [16]: 190 nM
IC50 [17]: 20 nM
Structure (SMILES): CC1(C)CC=C(c2nc(C3CC(C)(C)OC(C)(C)C3)ccc2NC(=O)c2nc(C#N)c[nH]2)CC1 [EDICOTINIB]

Structure (SMILES): Cc1ccc(F)c(NC(=O)Nc2ccc(-c3cccc4[nH]nc(N)c34)cc2)c1 [LINIFANIB]
IC50 at 48 h [18]: 8600 nM
IC50 (NFS-60 [19]): 30 nM
GI50 (NFS-60 [20]): 4400 nM

IC50 [21]: 15 nM
IC50 [22]: 15 nM
IC50 [23]: 15 nM
Structure (SMILES): O=C(Nc1ccc(OC(F)(F)F)cc1)c1sccc1NCc1ccnc2ccccc12 [OSI-930]

IC50 [24]: 26 nM
Structure (SMILES): COc1ncc(F)cc1CNc1ccc(Cc2c[nH]c3ncc(C)cc23)c(F)n1 [PLX-5622]

IC50 (CT26): 1 nM
Structure (SMILES): CNC(=O)c1cc(Oc2ccc3nc(N[C@@H]4CCCC[C@H]4O)sc3c2)ccn1 [SOTULETINIB]

IC50 [15]: 4.1 nM
Structure (SMILES): CCN(CC)CCNC(=O)c1c(C)[nH]c(/C=C2\C(=O)Nc3ccc(F)cc32)c1C [SUNITINIB]

IC50 [25]: 4 nM
IC50 [26]: 1 nM
IC50 [27]: 79 nM
IC50 [29]: 1 nM
Structure (SMILES): Cc1cc2cc(Oc3ccnc(Nc4cccc(CS(=O)(=O)NCCN(C)C)c4)n3)ccc2[nH]1 [SURUFATINIB]
IC50 (HUVEC [28]): < 50 nM
IC50 (HUVEC [30]): < 50 nM

Structure (SMILES): Cc1nc(-c2cnc(NC(C)C)n(C)c2=O)ccc1Oc1ccnc(-c2cnn(C)c2)c1 [VIMSELTINIB]
Activity (MC-38): 67%
